Assay results reported in patent US12629401B2, “Method for preparing ginseng extract enriched with rare ginsenosides and applications thereof” (priority 2023, dated 2026).

System: SD1347 nematodes
Assay: Mitochondrial health test: muscle fragmentation score by confocal microscopy
Assay type: in vivo, C. hidradenitis elegans nematodes
Settings: 100 μg/mL JadeAging, 11.4 μg/mL urolithin A
Source text: Skeletal sarcopenia is an age-related loss of muscle and strength. Muscle mitochondrial dysfunction is observed at the onset of skeletal sarcopenia, followed by alterations in skeletal muscle segmental architecture, ultimately leading to decreased movement. In recent years, clinical studies have shown that urolithin A improves mitochondrial health and alleviates muscle decline due to aging. In the present study, the fluorescently labeled myocyte nuclei and mitochondria of […] were used to assess whether JadeAging could ameliorate age-related dysfunction.
METHODS: SD1347 C. hidradenitis elegans nematodes were treated with JadeAging and fluorescently labeled with muscle nuclei and mitochondria, and muscle and mitochondrial health were assessed using confocal microscopy on days 2, 9, and 12 of the adult stage of C. hidradenitis elegans. […]
Maximum intensity projected confocal images of adult […] animals on days 2, 9 and 12 are shown in FIG. 11, all images are from the “head” region. Healthy muscles, i.e., those of the blank group (VC group), are marked by arrows in the day 2 images and are uniformly streaked; those of the blank group (VC group) are marked by arrows in the day 12 images and show uneven fluorescence. […]

## O=c1oc2cc(O)ccc2c2ccc(O)cc12 [urolithin A]
FIG. 13
  protective effect against age-related skeletal muscle reduction (mean fragmentation scores): significant protective effect
Days 2, 9, 12, FIG. 12
  mitochondrial health (change of fragmentation score distribution with age): superior to that of the blank group (VC group)
